According to US11192869B2, “CFTR regulators and methods of use thereof” (THE REGENTS OF THE UNIVERSITY OF CALIFORNIA, priority 2015, dated 2021):
Entries after “also recorded” stand apart in the source; their conditions may differ.

How the values were obtained:
FRT cells = experiment: Cytotoxicity, Alamar Blue assay; type: cell-based, rat; details: 20 μM
Description: Chronic administration and toxicity studies.
cAMP and cytotoxicity assays. Intracellular cAMP activity was measured using a GloSensor luminescence assay (Promega Corp., Madison, Wis., USA). FRT cells stably transfected with the pGloSensor cAMP plasmid (Promega Corp.) were cultured in white 96-well microplates (Corning Costar) overnight. Cells were then washed three times with PBS and incubated with 5 μM test compound for 10 min in the absence and presence of 100 nM forskolin.

[1] = Ocular toxicity after chronic topical dosing (slit-lamp, lissamine green); type: in vivo; details: chronically treated mice
Description: Lissamine green staining. To assess corneal epithelial disruption, 5 μL of lissamine green (LG) dye (1%) was applied to the ocular surface of isofluorane-anesthetized mice. Photographs of the eye were taken using a Nikon Digital camera adapted to an Olympus Zoom Stereo Microscope (Olympus, Center Valley, Pa., USA). Each corneal quadrant was scored on a 3-point scale by one blinded, trained observer, with the extent of staining in each quadrant classified as: 0, no staining; 1, sporadic (involving <25% of the total surface) staining; grade 2, diffuse punctate staining (25-75%); and grade 3, coalesced punctate staining (>75%). The total grade is reported as the sum of scores from all four quadrants, ranging from 0 to 12.

[2] = Pharmacokinetics after ip or oral administration; type: in vivo, mouse
Description: Pharmacokinetics. All animal experiments were approved by UCSF Institutional Animal Care and Use Committee. Female CD1 mice were treated with 10 mg/kg CFTRact-J027 (saline containing 5% DMSO and 10% Kolliphor HS 15) either intraperitoneally (ip) or orally. Blood was collected at 15, 30, 60, 150, 240 and 360 min after treatment by orbital puncture and centrifuged at 5000 rpm for 15 min to separate plasma. Plasma samples (60 μL) were mixed with 300 μL acetonitrile and centrifuged at 13000 rpm for 20 min, and 90 μL of the supernatant was used for LC/MS. The solvent system consisted of a linear gradient from 5 to 95% acetonitrile over 16 min (0.2 ml/min flow). Mass spectra was acquired on a mass spectrometer (Waters 2695 and Micromass ZQ) using electrospray (+) ionization, mass ranging from 100 to 1500 Da, cone voltage 40 V. Calibration standards were prepared in plasma from untreated mice to which known amounts of CFTRact-J027 were added.

ocular surface = experiment: Ocular surface potential difference measurements; type: in vivo, mouse; details: wild-type mice, 1-10 μM
Description: Ocular surface potential difference measurements. Open-circuit transepithelial PD were measured continuously in anesthetized mice in response to serial perfusions of different solutions over the ocular surface, as described (21). Mice were anesthetized with Avertin (2,2,2-tribromoethanol, 125 mg/kg intraperitoneal, Sigma-Aldrich, St. Louis, Mo., USA), and core temperature was maintained at 37° C. using a heating pad. Eyes were oriented with the cornea and conjunctiva facing upward and exposed by retracting the eyelid with cross-action forceps. Solutions were isosmolar (320±10 mOsM; compositions provided in ref. 21) and contained 10μ[…] □ indomethacin to prevent CFTR activation by prostaglandins. The ocular surface was perfused at 6 mL/min through plastic tubing using a multireservoir gravity pinch-valve system (ALA Scientific, Westbury, N.Y., USA) and variable-flow peristaltic pump (medium flow model; Fisher Scientific, Fair Lawn, N.J., USA). A probe catheter was fixed 1 mm above the cornea using a micropositioner and a suction cannula was positioned 3 mm from the orbit. The measuring electrode was in contact to the perfusion catheter and connected to a high-impedance voltmeter (IsoMilivolt Meter; WPI). The reference electrode was grounded via a winged 21-gauge needle filled with isosmolar saline, and inserted subcutaneously in the abdomen. Measuring and reference electrodes consisted of Ag/AgCl with 3 M KCl agar bridges.
Ocular surface potential difference measurements. Open-circuit transepithelial PD were measured continuously in anesthetized mice in response to serial perfusions of different solutions over the ocular surface, as described (21). Mice were anesthetized with Avertin (2,2,2-tribromoethanol, 125 mg/kg intraperitoneal, Sigma-Aldrich, St. Louis, Mo., USA), and core temperature was maintained at 37° C. using a heating pad. Eyes were oriented with the cornea and conjunctiva facing upward and exposed by retracting the eyelid with cross-action forceps. […]

[3] = In vitro metabolic stability; type: in vitro ADME, mouse
Description: In vitro metabolic stability. CFTRact-J027 (5 μM) was incubated for specified times at 37° C. with mouse liver microsomes (1 mg protein/ml; Sigma-Aldrich) in potassium phosphate buffer (100 mM) containing 1 mM NADPH, as described. The mixture was then chilled on ice, and 0.5 ml of ice-cold ethyl acetate was added. Samples were centrifuged for 15 min at 3000 rpm, the supernatant evaporated to dryness, and the residue was dissolved in 100 μL mobile phase (acetonitrile:water, 3:1) for LC/MS and assayed as described above.

Nc1ccc([N+](=O)[O-])cc1-c1nc2ccccc2n(Cc2ccccc2)c1=O [CFTRact-J027, 3-(2-amino-5-nitrophenyl)-1-benzylquinoxalin-2(1H)-one]
cytotoxicity (FRT cells): did not show cytotoxicity | LG staining, corneal or conjunctival epithelial disruption [1]: no corneal or conjunctival epithelial disruption | ocular toxicity by slit-lamp evaluation [1]: no signs of ocular toxicity | elimination half-life of serum concentration ([2]; 10 mg/kg ip): ~16 min | bioavailability (in words) ([2]; 10 mg/kg oral): very low bioavailability; also recorded: minimal bioavailability | blood levels relative to EC50 for CFTR activation ([2]; 10 mg/kg oral): well below the EC50 | change in ocular surface PD (in words) (ocular surface): large hyperpolarizations | original compound remaining ([3]; 60 min): 7% | hepatic/microsomal metabolism (in words) ([3]; liver microsomes): rapid in vitro metabolism; also recorded: rapid hepatic metabolism | elimination half-life ([3]; mouse liver microsomes, NADPH, 5 μM): ~21 min
